Several values for one entry are separate records, joined by “and”; a condition that tells them apart may be missing. Equal values may be shown once.
Columns and labels:
mice [1] = test: Analgesic assay, tail flick response after intracerebral ventrical injection; format: in vivo; conditions: individual mouse
[2] = system: C-terminal directed Leu-enkephalin antibody; test: Radioimmunoassay, C-terminal directed antibody; format: binding; conditions: fractions from RP-18; 1.3 g wet weight of chromaffin granules isolated from 30 g of adrenal medulla
Description: (§1) Bovine adrenal glands were obtained from a local slaughterhouse and stored on ice until used (2 hrs). The medullas were dissected out and chromaffin granules prepared by the procedure of Smith and Winkler [Biochem. J., 103, & 80 (1967)]. The isolated chromaffin granules or whole adrenal medullas were homogenized (10:1 V/W) in 1 M acetic acid, 20 mM HCl containing 1μg/ml PMSF and pepstatin. The procedures for extraction, Sephadex column elution and trypsin digestion have been described [Lewis, R. V. et al., Proc. Nat'l. Acad. Sci., U.S.A. 75, & 021 (1978)]. The radioreceptor assay employed neuroblastoma x glioma hybrid cells [Gerber, L. D. et al., Brain Res. 1515, 117 (1978)] with ^3 H-Leuenkephalin as the competing ligand. Radioimmunoassays were performed using a C-terminal directed Leu-enkephalin antibody and a N-terminal directed Met-enkephalin antibody. The characteristics of these antibodies have been described previously [Lewis. R. V., et al. Biochem. Biophys. Res. Commun. 89, 822 (1979)] .
(§2) In order to determine whether fractions 6,7, and 16 were indeed separate entities differing chromatographically from the enkephalins, these fractions were lyophilized, redissolved and rechromatographed. Each opioid peptide eluted at its original position. […]

[3] = system: N-terminal directed Met-enkephalin antibody; test: Radioimmunoassay, N-terminal directed antibody; format: binding; conditions: fractions from RP-18; 1.3 g wet weight of chromaffin granules isolated from 30 g of adrenal medulla
Description: as §1, §2

rats = conditions: intracerebraventricular or intravenous administration to rats; cited from earlier work
mice [4] = conditions: intracerebraventricular or intravenous administration to mice; cited from earlier work

Substance | Response (mice [1]; Dose 4.5nm, Volume 5nl) | Tail flick response, Post Injection Time 20 (mice [1]; Dose 4.5nm, Volume 5nl) | Radioimmunoassay C-Terminal [2] [nmoles/fraction] | Radioimmunoassay N-Terminal [3] [nmoles/fraction] | analgesia (rats) | analgesia (mice [4]) | Response (mice [1]; Dose 120 nm, Volume 10nl.) | Tail flick response, Post Injection Time 10 (mice [1]; Dose 120 nm, Volume 10nl.) | Tail flick response, Post Injection Time 2 min. (mice [1]; Dose 120 nm, Volume 10nl.)
Beta-endorphin (YGGFMTSEKSQTPLVTLFKNAIIKNAYKKGE; Beta-endorphin; UniProt P01189 237-267, looked up) | Pos. and Neg. | 8 |  |  |  |  |  |  | 
Leu-enkephalin [Leu-enk (std)] |  |  | 1.0 | 0.4 | weak and short lined anagesia | weak and short lined anagesia |  |  | 
methionine enkephalin [Met Enk] |  |  | 0.03 | 1.0 | weak and short lined anagesia | weak and short lined anagesia | Neg. | 6.3 and 5.9 and 5.0 | 4.0 and 4.7

From patent US4264492A, “Enkephalin-like compounds in bovine adrenal medulla” (Hoffmann-La Roche Inc., priority 1979, dated 1981)
